# According to patent US11713307B2, “Heteroaryl-biphenyl amides for the treatment of PD-L1 diseases” (CHEMOCENTRYX, INC., priority 2019, dated 2023):
# Molecular target: human PD-L1 (Homo sapiens (Human), UniProt Q9NZQ7)
# Test: Enzyme-Linked Immunosorbent Assay—ELISA (PD-1/PD-L1 binding)
# Conditions: plates coated with human PD-L1; Human PD-1 and biotin added; absorbance at 450 nm
# Protocol: 96 Well plates were coated with 1 μg/mL of human PD-L1 (obtained from R&D) in PBS overnight at 4° C. The wells were then blocked with 2% BSA in PBS (W/V) with 0.05% TWEEN-20 for 1 hour at 37° C. The plates were washed 3 times with PBS/0.05% TWEEN-20 and the compounds were serial diluted (1:5) in dilution medium and added to the ELISA plates. Human PD-1 and biotin 0.3 μg/mL (ACRO Biosystems) were added and incubated for 1 hour at 37° C. then washed 3 times with PBS/0.05% TWEEN-20. A second block was performed with 2% BSA in PBS (W/V)/0.05% TWEEN-20 for 10 min at 37° C. and the plates were washed 3 times with PBS/0.05% TWEEN-20. Streptavidin-HRP was added for 1 hour at 37° C. then the plates were washed 3 times with PBS/0.05% TWEEN-20. TMB substrate was added and reacted for 20 min at 37° C. A stop solution (2 N aqueous H2SO4) was added. The absorbance was read at 450 nm using a micro-plate spectrophotometer. The results are shown in Table 1: IC50 values are provided as follows: from 1000 to 10,000 nM (+); from 10 up to 1000 nM (++); less than 10 nM (+++).
# Chain of human PD-L1 (Q9NZQ7 19-239): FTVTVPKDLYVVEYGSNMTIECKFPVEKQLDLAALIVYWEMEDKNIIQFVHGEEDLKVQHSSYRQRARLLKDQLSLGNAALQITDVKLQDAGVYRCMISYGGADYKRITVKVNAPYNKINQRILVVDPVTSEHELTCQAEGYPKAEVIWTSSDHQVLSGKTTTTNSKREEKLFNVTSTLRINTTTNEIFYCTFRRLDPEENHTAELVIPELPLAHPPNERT
row,IC50 [nM],Compound
1,< 10,COc1nc(-c2cccc(-c3cccc(NC(=O)c4cn(C)c(=O)n(C)c4=O)c3Cl)c2F)ccc1CN[C@@H]1CCOC[C@@H]1O [Compound 1.018]
2,< 10,COc1nc(-c2cccc(-c3cccc(NC(=O)c4cn(C)c(=O)n(C)c4=O)c3C)c2Cl)ccc1CN1CC[C@](C)(O)C1 [Compound 1.019]
3,10 to 1000,COc1cc(-c2cccc(-c3cccc(NC(=O)c4cn(C)c(=O)n(C)c4=O)c3Cl)c2Cl)ncc1CN1CC(O)C1 [Compound 1.080]
4,< 10,COc1nc(-c2cccc(-c3cccc(NC(=O)c4cn(C)c(=O)n(C)c4=O)c3)c2Cl)ccc1CNC[C@@H]1CCC(=O)N1 [Compound 1.061]
5,< 10,COc1nc(-c2cccc(-c3cccc(NC(=O)c4cn(C)c(=O)n(C)c4=O)c3Cl)c2Cl)ccc1CNC[C@H](C)O [Compound 1.034]
6,< 10,COc1nc(-c2cccc(-c3cccc(NC(=O)c4cn(C)c(=O)n(C)c4=O)c3C)c2Cl)ccc1CN1CC(C(=O)O)C1 [Compound 1.082]
7,< 10,COc1cc(-c2cccc(-c3cccc(NC(=O)c4cn(C)c(=O)n(C)c4=O)c3Cl)c2Cl)ncc1CN[C@@H]1CCOC[C@@H]1O [Compound 1.097]
8,< 10,COc1nc(-c2cccc(-c3cccc(NC(=O)c4cn(C)c(=O)n(C)c4=O)c3Cl)c2Cl)ccc1CN1CC(O)C1 [Compound 1.090]
9,< 10,COc1nc(-c2cccc(-c3cccc(NC(=O)c4cn(C)c(=O)n(C)c4=O)c3C)c2Cl)ccc1CNCC(=O)O [Compound 1.051]
10,< 10,CCc1nc(-c2cccc(-c3cccc(NC(=O)c4cn(C)c(=O)n(C)c4=O)c3Cl)c2Cl)ccc1CN1CC(C(=O)O)C1 [Compound 1.071]
11,< 10,COc1nc(-c2cccc(-c3cccc(NC(=O)c4cn(C)c(=O)n(C)c4=O)c3Cl)c2Cl)cnc1CN1CC(O)C1 [Compound 1.098]
12,< 10,COc1nc(-c2cccc(-c3cccc(NC(=O)c4cn(C)c(=O)n(C)c4=O)c3C)c2Cl)ccc1CNCC(C)(C)CO [Compound 1.049]
13,< 10,COc1nc(-c2cccc(-c3cccc(NC(=O)c4cn(C)c(=O)n(C)c4=O)c3Cl)c2Cl)ccc1CNC[C@@H](C)O [Compound 1.032]
14,< 10,COc1nc(-c2cccc(-c3cccc(NC(=O)c4cn(C)c(=O)n(C)c4=O)c3Cl)c2Cl)ccc1CN1CC[C@@](C)(O)C1 [Compound 1.027]
15,< 10,COc1nc(-c2cccc(-c3cccc(NC(=O)c4cn(C)c(=O)n(C)c4=O)c3C)c2Cl)ccc1CN[C@H](C)CO [Compound 1.020]
16,< 10,COc1nc(-c2cccc(-c3cccc(NC(=O)c4cn(C)c(=O)n(C)c4=O)c3Cl)c2Cl)ccc1CN1CC(C)(C(=O)O)C1 [Compound 1.085]
17,< 10,COc1nc(-c2cccc(-c3cccc(NC(=O)c4cn(C)c(=O)n(C)c4=O)c3Cl)c2Cl)ccc1CNCC1(O)CC1 [Compound 1.035]
18,< 10,Cc1c(NC(=O)c2cn(C)c(=O)n(C)c2=O)cccc1-c1cccc(-c2ccc(CNC[C@@H]3CCC(=O)N3)c(C(F)(F)F)n2)c1Cl [Compound 1.045]

# Second part, the compound before the results:
row,Compound,IC50 [nM]
1,COc1nc(-c2cccc(-c3cccc(NC(=O)c4cn(C)c(=O)n(C)c4=O)c3C)c2Cl)ccc1CN[C@@H]1CCOC[C@@H]1O [Compound 1.008],< 10
2,COc1nc(-c2cccc(-c3cccc(NC(=O)c4cn(C)c(=O)n(C)c4=O)c3Cl)c2)ccc1CNC[C@@H]1CCC(=O)N1 [Compound 1.067],< 10
3,COc1cc(-c2cccc(-c3cccc(NC(=O)c4cn(C)c(=O)n(C)c4=O)c3C)c2Cl)cnc1CN[C@@H]1CCOC[C@@H]1O [Compound 1.009],< 10
4,COc1nc(-c2cccc(-c3cccc(NC(=O)c4cn(C)c(=O)n(C)c4=O)c3Cl)c2Cl)ccc1CN[C@@H]1CCOC[C@@H]1O [Compound 1.087],< 10
5,COc1nc(-c2cccc(-c3cccc(NC(=O)c4cn(C)c(=O)n(C)c4=O)c3Cl)c2Cl)ccc1CNCCO [Compound 1.039],< 10
6,COc1nc(-c2cccc(-c3cccc(NC(=O)c4cn(C)c(=O)n(C)c4=O)c3C)c2Cl)ccc1CN[C@@H](C)CO [Compound 1.021],< 10
7,COc1nc(-c2cccc(-c3cccc(NC(=O)c4cn(C)c(=O)n(C)c4=O)c3Cl)c2Cl)ccc1CN1CC(C(=O)O)C1 [Compound 1.084],< 10
8,COc1nc(-c2cccc(-c3cccc(NC(=O)c4cn(C)c(=O)n(C)c4=O)c3C)c2Cl)ccc1CN[C@H]1CCOC[C@@H]1O [Compound 1.013],< 10
9,COc1nc(-c2cccc(-c3cccc(NC(=O)c4cn(C)c(=O)n(C)c4=O)c3C)c2Cl)ccc1CN1CC2(CNC(=O)N2)C1 [Compound 1.025],< 10
10,COc1nc(-c2cccc(-c3cccc(NC(=O)c4cn(C)c(=O)n(C)c4=O)c3Cl)c2Cl)ccc1CN1CC(NS(C)(=O)=O)C1 [Compound 1.073],< 10
11,COc1nc(-c2cccc(-c3cccc(NC(=O)c4cn(C)c(=O)n(C)c4=O)c3Cl)c2Cl)cnc1CN[C@H]1CCOC[C@H]1O [Compound 1.004],< 10
12,COc1cc(-c2cccc(-c3cccc(NC(=O)c4cn(C)c(=O)n(C)c4=O)c3C)c2C)cnc1CNCCO [Compound 1.010],< 10
13,COc1nc(-c2cccc(-c3cccc(NC(=O)c4cn(C)c(=O)n(C)c4=O)c3C)c2Cl)ccc1CN[C@H]1CCOC[C@H]1O [Compound 1.042],< 10
14,COc1nc(-c2cccc(-c3cccc(NC(=O)c4cn(C)c(=O)n(C)c4=O)c3Cl)c2Cl)cnc1CNC[C@@H]1CCC(=O)N1 [Compound 1.003],< 10
15,COc1nc(-c2cccc(-c3cccc(NC(=O)c4cn(C)c(=O)n(C)c4=O)c3Cl)c2Cl)ccc1CN[C@@](C)(CO)C(=O)O [Compound 1.070],< 10
16,COc1nc(-c2cccc(-c3cccc(NC(=O)c4cn(C)c(=O)n(C)c4=O)c3Cl)c2Cl)ccc1CNCCCO [Compound 1.036],< 10
17,Cn1cc(C(=O)Nc2cccc(-c3cccc(-c4ccc(CNC[C@@H]5CCC(=O)N5)c(O)n4)c3Cl)c2Cl)c(=O)n(C)c1=O [Compound 1.033],10 to 1000
18,COc1nc(-c2cccc(-c3cccc(NC(=O)c4cn(C)c(=O)n(C)c4=O)c3Cl)c2Cl)ccc1CNCC(C)(C)C(N)=O [Compound 1.057],< 10
19,COc1nc(-c2cccc(-c3cccc(NC(=O)c4cn(C)c(=O)n(C)c4=O)c3Cl)c2C)ccc1CNC[C@@H]1CCC(=O)N1 [Compound 1.068],< 10
20,COc1nc(-c2cccc(-c3cccc(NC(=O)c4cn(C)c(=O)n(C)c4=O)c3Cl)c2Cl)ccc1CNC[C@@H]1CCC(=O)N1 [Compound 1.088],< 10
21,COc1nc(-c2cccc(-c3cccc(NC(=O)c4cn(C)c(=O)n(C)c4=O)c3C)c2Cl)ccc1CN1CC2(CCNC2=O)C1 [Compound 1.092],< 10
22,COc1nc(-c2cccc(-c3cccc(NC(=O)c4cn(C)c(=O)n(C)c4=O)c3C)c2F)ccc1CN[C@@H]1CCOC[C@@H]1O [Compound 1.024],< 10
23,COc1nc(-c2cccc(-c3cccc(NC(=O)c4cn(C)c(=O)n(C)c4=O)c3C)c2C#N)ccc1CN[C@@H]1CCOC[C@@H]1O [Compound 1.026],< 10
24,COc1nc(-c2cccc(-c3cccc(NC(=O)c4cccn(C)c4=O)c3Cl)c2Cl)ccc1CNC[C@@H]1CCC(=O)N1 [Compound 1.069],< 10
25,COc1nc(-c2cccc(-c3cccc(NC(=O)c4cn(C)c(=O)n(C)c4=O)c3Cl)c2F)ccc1CNC[C@@H]1CCC(=O)N1 [Compound 1.063],< 10
26,COc1nc(-c2cccc(-c3cccc(NC(=O)c4cn(C)c(=O)n(C)c4=O)c3C)c2Cl)ccc1CN[C@@H]1CCOC[C@H]1O [Compound 1.014],< 10
27,COc1nc(-c2cccc(-c3cccc(NC(=O)c4cn(C)c(=O)n(C)c4=O)c3Cl)c2Cl)cnc1CN[C@@H]1CNC(=O)C1 [Compound 1.002],< 10
28,COc1nc(-c2cccc(-c3cccc(NC(=O)c4cn(C)c(=O)n(C)c4=O)c3Cl)c2Cl)ccc1CNC[C@H]1CCC(=O)N1 [Compound 1.066],< 10
29,COc1nc(-c2cccc(-c3cccc(NC(=O)c4cn(C)c(=O)n(C)c4=O)c3C)c2Cl)ccc1CN1CC(C)(O)C1 [Compound 1.038],< 10
